Patent US7728001B2 (priority 2004, dated 2010)
Where two headings read alike, the source gives them in different places.

Tests used:
opioid receptors = assay type: biochemical
rhesus monkeys [1] = conditions: nonhuman primates, recent report; cited from earlier work
humans = conditions: cited from earlier work
[2] = molecular target: serotonin 5-HT2A receptor (Homo sapiens, UniProt P28223); conditions: cited from earlier work
κ receptors = κ receptors (Homo sapiens, UniProt P41145); assay: biochemical; assay type: binding
κ receptors, sequence (P41145 whole entry): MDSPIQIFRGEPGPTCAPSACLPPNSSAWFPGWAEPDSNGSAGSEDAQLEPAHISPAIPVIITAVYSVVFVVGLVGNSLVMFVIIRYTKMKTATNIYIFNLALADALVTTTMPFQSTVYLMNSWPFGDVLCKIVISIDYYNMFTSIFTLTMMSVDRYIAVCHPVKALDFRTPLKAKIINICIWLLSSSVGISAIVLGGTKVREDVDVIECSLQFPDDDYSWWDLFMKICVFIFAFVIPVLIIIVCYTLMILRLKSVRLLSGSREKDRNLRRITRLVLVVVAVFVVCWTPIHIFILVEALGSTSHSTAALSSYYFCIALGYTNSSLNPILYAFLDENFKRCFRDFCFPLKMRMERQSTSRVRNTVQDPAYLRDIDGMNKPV

rhesus monkeys [3] = assay: behavioral / discriminative stimulus effects, generalization to U69,593; assay type: in vivo; parameters: generalization to U69,593: dose or concentration left out as unconfirmed
Description: In an effort to further understand the in vivo pharmacology of these derivatives, propionate 9 was evaluated for behavioral effects in nonhuman primates in a pilot study. […] Propionate 9 generalized to U69,593 in only one of two rhesus monkeys tested, up to the highest dose that could be administered ([…], s.c.).

μ receptors = μ receptors (Homo sapiens, UniProt P35372); assay: opioid receptor binding affinity, [^125I]IOXY as radioligand (μ); conditions: for Ki: [^125I]IOXY radioligand
μ receptors, sequence (P35372 whole entry): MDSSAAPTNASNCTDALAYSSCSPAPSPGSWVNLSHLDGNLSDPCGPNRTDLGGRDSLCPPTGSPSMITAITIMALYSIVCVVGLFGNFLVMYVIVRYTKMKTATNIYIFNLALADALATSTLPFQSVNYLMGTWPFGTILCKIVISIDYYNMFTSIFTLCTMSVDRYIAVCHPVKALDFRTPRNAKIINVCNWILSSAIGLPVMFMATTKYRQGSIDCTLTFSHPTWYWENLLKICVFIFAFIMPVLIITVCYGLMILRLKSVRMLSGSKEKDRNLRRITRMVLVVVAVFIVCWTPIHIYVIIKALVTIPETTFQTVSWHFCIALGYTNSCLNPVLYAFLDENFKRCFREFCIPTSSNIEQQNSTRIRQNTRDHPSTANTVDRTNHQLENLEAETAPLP

δ receptors = δ receptors (Homo sapiens, UniProt P41143); assay: biochemical; assay type: binding
δ receptors, sequence (P41143 whole entry): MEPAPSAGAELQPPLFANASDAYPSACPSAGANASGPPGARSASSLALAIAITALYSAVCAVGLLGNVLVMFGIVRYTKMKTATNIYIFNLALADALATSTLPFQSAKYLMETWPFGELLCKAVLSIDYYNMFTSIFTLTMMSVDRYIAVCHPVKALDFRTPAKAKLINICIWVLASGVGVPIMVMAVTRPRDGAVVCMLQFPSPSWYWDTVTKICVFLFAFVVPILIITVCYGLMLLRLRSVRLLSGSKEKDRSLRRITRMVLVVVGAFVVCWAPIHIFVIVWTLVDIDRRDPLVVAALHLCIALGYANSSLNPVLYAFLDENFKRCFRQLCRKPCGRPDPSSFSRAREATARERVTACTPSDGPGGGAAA

serotonin 5-HT2A receptor, sequence (P28223 whole entry): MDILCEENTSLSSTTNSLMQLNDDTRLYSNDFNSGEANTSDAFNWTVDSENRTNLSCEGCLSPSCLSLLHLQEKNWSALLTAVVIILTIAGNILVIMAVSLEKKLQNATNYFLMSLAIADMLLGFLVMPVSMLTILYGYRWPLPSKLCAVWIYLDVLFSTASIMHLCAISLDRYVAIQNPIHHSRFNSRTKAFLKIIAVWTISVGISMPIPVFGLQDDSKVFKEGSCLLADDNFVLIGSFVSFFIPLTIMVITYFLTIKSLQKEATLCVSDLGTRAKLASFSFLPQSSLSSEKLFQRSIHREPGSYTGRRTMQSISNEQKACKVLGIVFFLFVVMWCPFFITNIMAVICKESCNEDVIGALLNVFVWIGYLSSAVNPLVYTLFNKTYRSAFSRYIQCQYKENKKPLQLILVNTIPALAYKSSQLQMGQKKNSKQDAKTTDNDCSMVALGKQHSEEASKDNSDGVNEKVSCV

Structure (SMILES): COC(=O)[C@@H]1C[C@H](OC(C)=O)C(=O)[C@H]2[C@@]1(C)CC[C@H]1C(=O)O[C@H]([C@]3(O)[C@H](OC)O[C@H](OC)[C@H]3O)C[C@]21C
- melting point: 272 to 274 °C

Structure (SMILES): COC(=O)[C@@H]1C[C@H](OC(C)=O)C(=O)[C@H]2[C@@]1(C)CC[C@H]1C(=O)O[C@H]([C@]3(O)[C@@H](OC)O[C@@H](OC)[C@H]3O)C[C@]21C
- melting point: 151 to 153 °C

Structure (SMILES): COC(=O)[C@@H]1C[C@H](OC(C)=O)C(=O)[C@H]2[C@@]1(C)CC[C@H]1C(=O)O[C@H](c3ccoc3)C[C@]21C [Compound 1, Salvinorin A]
- functional activity (opioid receptors; [^35S]GTPγS assay): agonists
- discriminative stimulus effect (rhesus monkeys [1]): discriminative stimulus effect similar to the high efficacy κ agonist U69,593
- smoked dose producing profound hallucinations (humans): 200 to 500 µg
- activity at the serotonin 5-HT2A receptor [2]: no activity

Structure (SMILES): CCC(=O)O[C@H]1C[C@@H](C(=O)OC)[C@]2(C)CC[C@H]3C(=O)O[C@H](c4ccoc4)C[C@]3(C)[C@H]2C1=O [Compound 9, (2S,4aR,6aR,7R,9S,10aS,10bR)-9-(propionyloxy)-2-(3-furanyl)dodecahydro-6a,10b-dimethyl-4,10-dioxo-2H-naphtho[2,1-c]pyran-7-carboxylic acid methyl ester]
- Ki (κ receptors; read-out: Ki at κ receptors): 1.8 nM
- functional activity (opioid receptors): agonists
- behavioral effect (rhesus monkeys [3]; nonhuman primates, pilot study, preliminary results): partial κ agonist
- generalization to U69,593 (rhesus monkeys [3]; rhesus monkeys, up to highest dose, s.c.): one of two

Structure (SMILES): COC(=O)[C@@H]1C[C@H](OC(=O)C(C)C)C(=O)[C@H]2[C@@]1(C)CC[C@H]1C(=O)O[C@H](c3ccoc3)C[C@]21C [Compound 10, (2S,4aR,6aR,7R,9S,10aS,10bR)-9-(isobutyryloxy)-2-(3-furanyl)-dodecahydro-6a,10b-dimethyl-4,10-dioxo-2H-naphtho[2,1-c]pyran-7-carboxylic acid methyl ester]
- Ki (κ receptors): 2980 nM
- fold reduction of affinity at κ receptors compared to 9 (κ receptors): approximately 10 fold
- Ki (κ receptors; read-out: Ki at κ receptors): 19 nM

Structure (SMILES): C=C(C)C(=O)O[C@H]1C[C@@H](C(=O)OC)[C@]2(C)CC[C@H]3C(=O)O[C@H](c4ccoc4)C[C@]3(C)[C@H]2C1=O [Compound 11, (2S,4aR,6aR,7R,9S,10aS,10bR)-9-(2-methylacryloyloxy)-2-(3-furanyl)-dodecahydro-6a,10b-dimethyl-4,10-dioxo-2H-naphtho[2,1-c]pyran-7-carboxylic acid methyl ester]
- Ki (κ receptors): 260 nM
- fold increase in affinity, printed 'at κ receptors', compared to 10 (κ receptors): ~11 fold
- Ki (κ receptors; read-out: Ki at κ receptors): 42 nM

Structure (SMILES): COC(=O)C(=O)O[C@H]1C[C@@H](C(=O)OC)[C@]2(C)CC[C@H]3C(=O)O[C@H](c4ccoc4)C[C@]3(C)[C@H]2C1=O [Compound 12, Oxalic acid methyl ester (2S,4aR,6aR,7R,9S,10aS,10bR)-7-carbomethoxy-2-(3-furanyl)dodecahydro-6a,10b-dimethyl-4,10-dioxo-2H-naphtho[2,1-c]pyran-9-yl ester]
- fold loss of affinity at κ receptors compared to 11 (κ receptors): 10 fold
- Ki (κ receptors; read-out: Ki at κ receptors): 430 nM

Structure (SMILES): COC(=O)[C@@H]1C[C@H](OC(=O)c2ccccc2)C(=O)[C@H]2[C@@]1(C)CC[C@H]1C(=O)O[C@H](c3ccoc3)C[C@]21C [Compound 13, (2S,4aR,6aR,7R,9S,10aS,10bR)-9-(benzoyloxy)-2-(3-furanyl)-dodecahydro-6a,10b-dimethyl-4,10-dioxo-2H-naphtho[2,1-c]pyran-7-carboxylic acid methyl ester]
- fold loss/decrease in affinity at κ receptors compared to 1 (κ receptors): 47 fold
- Ki (κ receptors; read-out: Ki at κ receptors): 90 nM
- selectivity for μ opioid receptor (μ receptors): binds selectively to the μ opioid receptor
- Ki (μ receptors): 12 nM
- functional activity (opioid receptors): agonists

Structure (SMILES): COC(=O)[C@@H]1C[C@H](OC(=O)c2cccnc2)C(=O)[C@H]2[C@@]1(C)CC[C@H]1C(=O)O[C@H](c3ccoc3)C[C@]21C [Compound 14, Nicotinic acid (2S,4aR,6aR,7R,9S,10aS,10bR)-7-carbomethoxy-2-(3-furanyl)dodecahydro-6a,10b-dimethyl-4,10-dioxo-2H-naphtho[2,1-c]pyran-9-yl ester]
- Ki (κ receptors; read-out: Ki at κ receptors): 1930 nM
- Ki (μ receptors): 73 nM
- fold decrease in affinity at μ receptors compared to 13 (μ receptors; ratio of Ki vs. 13): 21 fold

Structure (SMILES): COC(=O)[C@@H]1C[C@H](OS(C)(=O)=O)C(=O)[C@H]2[C@@]1(C)CC[C@H]1C(=O)O[C@H](c3ccoc3)C[C@]21C [Compound 15, (2S,4aR,6aR,7R,9S,10aS,10bR)-9-(methanesulfonyloxy)-2-(3-furanyl)-dodecahydro-6a,10b-dimethyl-4,10-dioxo-2H-naphtho[2,1-c]pyran-7-carboxylic acid methyl ester]
- Ki (κ receptors; read-out: Ki at κ receptors): 2.3 nM
- functional activity (opioid receptors): agonists

Structure (SMILES): COC(=O)[C@@H]1C[C@H](O[Si](C)(C)C)C(=O)[C@H]2[C@@]1(C)CC[C@H]1C(=O)O[C@H](c3ccoc3)C[C@]21C [Compound 16, (2S,4aR,6aR,7R,9S,10aS,10bR)-9-(trimethylsilanyloxy)-2-(3-furanyl)-dodecahydro-6a,10b-dimethyl-4,10-dioxo-2H-naphtho[2,1-c]pyran-7-carboxylic acid methyl ester]
- fold loss/decrease in affinity at κ receptors compared to 1 (κ receptors): 847 fold
- Ki (κ receptors; read-out: Ki at κ receptors): 1610 nM

Structure (SMILES): COC(=O)[C@@H]1C[C@H](O)[C@H](O)[C@H]2[C@@]1(C)CC[C@H]1C(=O)O[C@H](c3ccoc3)C[C@]21C [Compound 18, (2S,4aR,6aR,7R,9S,10R,10aS,10bR)-9,10-(dihydroxy)-2-(3-furanyl)dodecahydro-6a,10b-dimethyl-4-oxo-2H-naphtho[2,1-c]pyran-7-carboxylic acid methyl ester]
- affinity at μ receptors (μ receptors): low affinity
- affinity at δ receptors (δ receptors): low affinity

Structure (SMILES): COC(=O)[C@@H]1C[C@H](O)[C@H](O)[C@@H]2[C@@]3(C)C[C@@H](c4ccoc4)OC(=O)[C@H]3CC[C@]21C [Compound 19, (2S,4aS,6aR,7R,9S,10R,10aS,10bR)-9,10-(dihydroxy)-2-(3-furanyl)dodecahydro-6a,10b-dimethyl-4-oxo-2H-naphtho[2,1-c]pyran-7-carboxylic acid methyl ester]
- Ki (κ receptors): ~10000 nM
- Ki (μ receptors): ~10000 nM
- Ki (δ receptors): ~10000 nM

Structure (SMILES): COC(=O)[C@@H]1C[C@H](OC(C)=O)[C@H](OC(C)=O)[C@H]2[C@@]1(C)CC[C@H]1C(=O)O[C@H](c3ccoc3)C[C@]21C [Compound 20, (2S,4aR,6aR,7R,9S,10R,10aS,10bR)-9,10-(diacetoxy)-2-(3-furanyl)dodecahydro-6a,10b-dimethyl-4-oxo-2H-naphtho[2,1-c]pyran-7-carboxylic acid methyl ester]
- fold loss/decrease in affinity at κ receptors compared to 1 (κ receptors): 340 fold
- Ki (κ receptors; read-out: Ki at κ receptors): 650 nM

Structure (SMILES): COC(=O)[C@@H]1C[C@H](OC(=N)C(Cl)(Cl)Cl)C(=O)[C@H]2[C@@]1(C)CC[C@H]1C(=O)O[C@H](c3ccoc3)C[C@]21C [Compound 21, (2S,4aR,6aR,7R,9S,10aS,10bR)-9-(2,2,2-trichloroacetimidoyloxy)-2-(3-furanyl)-dodecahydro-6a,10b-dimethyl-4,10-dioxo-2H-naphtho[2,1-c]pyran-7-carboxylic acid methyl ester]
- fold loss/decrease in affinity at κ receptors compared to 1 (κ receptors): 34 fold
- Ki (κ receptors; read-out: Ki at κ receptors): 64 nM
- Ki (δ receptors; read-out: Ki at δ receptors): 6470 nM

Structure (SMILES): COC(=O)[C@@H]1C[C@H](OC(=O)Nc2ccccc2)C(=O)[C@H]2[C@@]1(C)CC[C@H]1C(=O)O[C@H](c3ccoc3)C[C@]21C [Compound 22, (2S,4aR,6aR,7R,9S,10aS,10bR)-9-(phenylcarbamoyloxy)-2-(3-furanyl)-dodecahydro-6a,10b-dimethyl-4,10-dioxo-2H-naphtho[2,1-c]pyran-7-carboxylic acid methyl ester]
- fold loss/decrease in affinity at κ receptors compared to 1 (κ receptors): 49 fold
- Ki (κ receptors; read-out: Ki at κ receptors): 93 nM
- Ki (μ receptors): 16 nM
- Ki (δ receptors; read-out: Ki at δ receptors): 230 nM

Structure (SMILES): C=CCNC(=O)O[C@H]1C[C@@H](C(=O)OC)[C@]2(C)CC[C@H]3C(=O)O[C@H](c4ccoc4)C[C@]3(C)[C@H]2C1=O [Compound 23, (2S,4aR,6aR,7R,9S,10aS,10bR)-9-(allylcarbamoyloxy)-2-(3-furanyl)-dodecahydro-6a,10b-dimethyl-4,10-dioxo-2H-naphtho[2,1-c]pyran-7-carboxylic acid methyl ester]
- fold loss/decrease in affinity at κ receptors compared to 1 (κ receptors): ~300 fold
- Ki (κ receptors; read-out: Ki at κ receptors): 120 nM
